Patent EP0577143A2, “Solid and liquid solutions of flavonoids” (ALFATEC-PHARMA GmbH, priority 1992, dated 1994)

Assay: Clinical bioavailability study: renal excretion of flavones over 24 h after oral rutin
Assay type: in vivo, gesunden Probanden
Conditions: Rutin molecularly dispersed in gelatin, taken by volunteers
From the text: Die nahrungsbedingte Flavonausscheidung wurde dabei berücksichtigt und durch entsprechende Diätvorschriften möglichst gering gehalten.
Die Analytik und Identifikation der Flavonausscheidungen kann z.B. wie folgt durchgeführt werden: • 1. Saure Spaltung ( 1 M Salzsäure) der in biologischen Flüssigkeiten (Urin) enthaltenen Flavonkonjugate. • 2. Festphasenextraktion mit Methanol zur Anreicherung der freigesetzten Flavone (z.B. Extrelut^R, Fa. Merck). • 3. HPLC-Analytik mit Diodenarray-Detektion und Identifizierung einzelner Flavone, zusätzlich elektrochemische Identifikation (anodisches Oxidationspotential).
Die Empfindlichkeit der genannten Analytik ist >10 ng Flavon pro ml.

Q: Which Metaboliten in vivo does the source give for `C[C@@H]1O[C@@H](OC[C@H]2O[C@@H](Oc3c(-c4ccc(O)c(O)c4)oc4cc(O)cc(O)c4c3=O)[C@H](O)[C@@H](O)[C@@H]2O)[C@H](O)[C@H](O)[C@H]1O` [Rutin] here?
A: Quercetin, Kämpferol und Isorhamnetin
